Structures are written as SMILES.

What is called ED50 is the dose at which the effect has come halfway, by size or by number of responders.

In one data set the target is receptors of the D2 type (Homo sapiens, UniProt P14416). Kind of data set: Affinity for D2 receptors by displacement of (3H) YM-09151-2. It counts as binding. As to conditions: mean of at least 3 experiments, read-out: D2 pKi (converted). The procedure:
1—Measurement of the affinity of the compounds of the invention for the D2 receptors.
The affinity of the compounds of the invention for the receptors of the D2 type was determined by measuring the displacement of (^3H) YM-09151-2 (NET-1004 70-87 Ci/mmol), according to the method described in Naunyn-Schimiedeberg's Arch. Pharmacol. Methods, 1985, 329, 333. The pKi values (−log Ki) are given in the form of a mean ±SEM of at least 3 experiments.

The next data set concerns the target T1, D2 receptors (Rattus norvegicus, UniProt P61169).
T1 construct: from tissue; host or cells: whole living rat (central nervous system)
The data set can be described thus: Inhibition of the behavior induced by methylphenidate (antidopaminergic activity in vivo). As to conditions: rats, oral administration, read-out: Normalization ED50. An excerpt: (§1) 2—Evaluation of the antagonist activity of the D2 receptors and of the cataleptogenic effects of the compounds of the invention in vivo

A short description of data set [1]: Cataleptogenic power (extrapyramidal side effects). As to conditions: rat, in vivo; rats, oral administration; read-out: Catalepsy ED50.
Source text: as §1
The test for evaluating the propensity of the products of the invention to cause side effects of extrapyramidal order is based on their cataleptogenic power, measured in rats, according to the method described in Eur. J. Pharmacol. 1996, 313, 25.

T1 sequence (P61169 whole entry): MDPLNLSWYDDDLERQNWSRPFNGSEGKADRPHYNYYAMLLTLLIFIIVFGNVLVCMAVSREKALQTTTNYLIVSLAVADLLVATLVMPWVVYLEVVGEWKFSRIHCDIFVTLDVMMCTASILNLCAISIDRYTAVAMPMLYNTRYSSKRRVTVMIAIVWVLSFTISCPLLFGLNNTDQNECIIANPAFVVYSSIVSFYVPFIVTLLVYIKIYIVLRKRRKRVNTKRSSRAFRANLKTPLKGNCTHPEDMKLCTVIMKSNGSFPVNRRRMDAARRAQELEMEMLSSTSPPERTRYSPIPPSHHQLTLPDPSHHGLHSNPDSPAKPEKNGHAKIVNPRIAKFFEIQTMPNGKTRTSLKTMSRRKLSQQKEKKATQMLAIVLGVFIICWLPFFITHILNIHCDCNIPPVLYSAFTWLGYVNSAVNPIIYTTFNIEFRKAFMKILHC
Sequence of receptors of the D2 type (P14416 whole entry): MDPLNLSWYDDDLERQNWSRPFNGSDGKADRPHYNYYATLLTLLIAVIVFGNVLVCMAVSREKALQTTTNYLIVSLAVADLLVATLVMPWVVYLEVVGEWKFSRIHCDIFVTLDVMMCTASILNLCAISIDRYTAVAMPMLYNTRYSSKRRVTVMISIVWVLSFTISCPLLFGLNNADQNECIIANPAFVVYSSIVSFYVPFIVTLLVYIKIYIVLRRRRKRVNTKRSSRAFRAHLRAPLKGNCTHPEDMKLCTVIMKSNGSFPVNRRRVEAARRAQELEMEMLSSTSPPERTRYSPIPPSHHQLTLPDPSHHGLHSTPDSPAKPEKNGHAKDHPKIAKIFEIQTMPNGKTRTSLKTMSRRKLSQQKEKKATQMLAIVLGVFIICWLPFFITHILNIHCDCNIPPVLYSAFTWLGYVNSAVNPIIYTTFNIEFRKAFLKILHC

As to `CC(C)Oc1ccc(F)cc1OCCNCc1cccc(-c2ccsc2)c1` [la, [3-(3-Thienyl)benzyl]-[2-([5-fluoro-2-isopropoxy]-phenoxy)ethyl]amine], the Ki at receptors of the D2 type was 0.355 nM. For the same compound, the ED50 at D2 receptors was 0.7 mg/kg; in data set [1], more than 40 mg/kg.

As for `Cc1nc2n(c(=O)c1CCN1CCC(c3noc4cc(F)ccc34)CC1)CCCC2` [Risperidone, reference compound], the ED50 on D2 receptors was determined as 6.5 mg/kg.

The record behind these values is US6417222B1, “[2-substituted-5-[3-thienyl)-benzyl]-2- ([2-isopropoxy-5-fluoro]-phenyoxy)-ethyl]-amine derivatives, method for the production and use thereof as medicaments” (Pierre Fabre Medicament, priority 1999, dated 2002).
